According to patent publication US10954214B2 (Janssen Pharmaceutica NV, priority 2016, dated 2021):

Legend:
[1] = test system: IL6 secretion by TMD8 ABC-DLBCL cells; assay: Human IL6 Mesoscale assay (TMD-8); assay type: cell-based; conditions: Homo sapiens, TMD8; TMD-8 cells, 24 h
Experimental: (§1) NFKB signaling regulates the secretion of multiple cytokines, including IL6 and IL10. Secretion of the cytokines IL6 and IL10 by TMD8 or OCI-LY3 ABC-DLBCL cells was measured using a mesoscale assay. Inhibition of NFKB signaling by MALT1 or BTK inhibitors results in a decrease of IL6/10 secretion.
(§2) TMD8 or OCI-LY3 cells were propagated in RPMI-1640 (Sigma Aldrich) supplemented with 10% fetal bovine serum (HyClone), 1 mM sodium pyruvate (Invitrogen), 2 mM L-glutamine (Sigma Aldrich) and 1% PenStrep (Sigma Aldrich). Cell passage number should not exceed 30. Cells should be kept between 0.5-2.5 million cells per mL during culturing and cells should be supplemented every 2-3 days with fresh 50 μM beta-mercaptoenthanol. No beta-mercaptoethanol was used during the mesoscale assay.
(§3) For the Mesoscale assay, 100,000 TMD8 or OCI-LY3 cells were seeded per well into black-colored 96-well plates with clear bottom (Corning #3904) and test compounds were added in 9 dilution steps (1:2) ranging from 15 μM to 58.6 nM (final DMSO concentration 0.3%). DMSO control wells were used to determine the maximum signal (High Control (HC)). Treatment with the BTK inhibitor RN486 in a dose range from 30 nM to 131 pM (9 dilutions of 1:2) served as a positive control for NFKB pathway inhibition and was used to determine the maximum inhibition (Low Control (LC)). Compounds and cells were incubated for 24 h at 37° C. and 5% CO2 (assay volume is 150 μL). After 24 h of incubation 50 μL of the supernatant was transferred to a MSD plate (V-Plex Proinflammation Panel 1 (human) kit, Mesoscale (MSD)) and incubated for 2 h with vigorous shaking (600 rpm) at room temperature. Following incubation, plates were washed 3× with PBS+0.05% Tween-20 and 25 μL detection antibody solution (IL6 & IL10 antibodies in diluent 3 (MSD)) was added per well followed by 2 h of incubation with vigorous shaking (600 rpm) at room temperature. After 3× washes with PBS+0.05% Tween-20, plates were incubated with 150 μL 2× Read Buffer T and read on SECTOR imager.

[2] = test system: IL10 secretion by TMD8 ABC-DLBCL cells; assay: Human IL10 Mesoscale assay (TMD-8); assay type: cell-based; conditions: Homo sapiens, TMD8; TMD-8 cells, 24 h
Experimental: as §1, §2, §3

[3] = biological target: full-length MALT1 protein (Strep-MALT1(1-824)-His) (Homo sapiens (Human), UniProt Q9UDY8); assay: MALT1 Biochemical Protease Assay (Ac-LRSR-AMC substrate); conditions: 10 nM FL MALT1, 200 μM Ac-LRSR-AMC, 4 h at RT; read-out: MALT1_Biochemical activity (Ac-LRSR-amc) IC50
Sequence of full-length MALT1 protein (Strep-MALT1(1-824)-His) (Q9UDY8 whole entry): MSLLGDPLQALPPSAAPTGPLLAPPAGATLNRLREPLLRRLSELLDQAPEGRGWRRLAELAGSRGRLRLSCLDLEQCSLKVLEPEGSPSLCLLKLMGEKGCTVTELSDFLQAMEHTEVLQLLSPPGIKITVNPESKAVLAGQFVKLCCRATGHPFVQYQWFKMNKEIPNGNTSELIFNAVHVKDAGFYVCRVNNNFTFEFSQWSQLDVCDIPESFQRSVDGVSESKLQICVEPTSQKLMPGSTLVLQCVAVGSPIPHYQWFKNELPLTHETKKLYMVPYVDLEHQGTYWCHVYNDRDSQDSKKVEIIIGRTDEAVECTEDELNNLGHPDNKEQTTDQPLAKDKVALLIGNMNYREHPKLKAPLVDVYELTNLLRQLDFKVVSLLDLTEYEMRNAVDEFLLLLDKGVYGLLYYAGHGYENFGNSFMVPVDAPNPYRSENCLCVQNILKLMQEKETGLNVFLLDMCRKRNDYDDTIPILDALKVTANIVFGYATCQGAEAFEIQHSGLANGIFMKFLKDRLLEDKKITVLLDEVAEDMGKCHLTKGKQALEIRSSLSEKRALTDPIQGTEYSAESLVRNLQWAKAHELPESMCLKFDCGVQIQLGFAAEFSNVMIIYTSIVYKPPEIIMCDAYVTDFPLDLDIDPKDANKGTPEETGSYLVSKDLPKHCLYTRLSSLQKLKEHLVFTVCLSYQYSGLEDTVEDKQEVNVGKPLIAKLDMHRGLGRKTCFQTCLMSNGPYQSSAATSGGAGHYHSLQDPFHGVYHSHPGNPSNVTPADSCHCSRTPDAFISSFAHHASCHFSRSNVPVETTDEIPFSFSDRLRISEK
Experimental: The tetrapeptide LRSR is coupled to AMC (7-amino-4-methylcoumarin) and provides a quenched, fluorescent substrate for the MALT1 protease (SM Biochemicals). […] Test compound concentrations ranged from 30 μM to 0.5 nM using 11 dilution steps (1:3). Background signal was measured from control wells containing assay buffer without enzyme which functions as low control (LC). High control (HC) values were generated using the reaction with enzyme but no compound treatment. Compounds were pre-incubated with MALT1 enzyme for 50 minutes at RT. […] The reaction was subsequently incubated for 4 h at RT and fluorescence was measured.
LC=Median of the low control values
An estimate of the slope of the plot in terms of the Hill coefficient was also obtained. IC50 Calculation:
[formula] With • UB=upper bound • LB=lower bound Used in “Lexis Dose Response Curve Fitting” Version 1.0.

Compound	IC50 [1]	IC50 [2]	IC50 [3]
N#Cc1cc(NC(=O)c2cnn(-c3cccc4nc(N)nn34)c2C(F)(F)F)cnc1-n1nccn1 [Cpd 159, 1-(2-amino-[1,2,4]triazolo[1,5-a]pyridin-5-yl)-N-(5-cyano-6-(2H-1,2,3-triazol-2-yl)pyridin-3-yl)-5-(trifluoromethyl)-1H-pyrazole-4-carboxamide]	> 15.1 µM	0.955 µM	0.105 µM
O=C(Nc1cnc(-n2nccn2)c(Cl)c1)c1cnn(-c2cccc3c(C(F)F)nccc23)c1C(F)(F)F [Cpd 400, N-(5-chloro-6-(2H-1,2,3-triazol-2-yl)pyridin-3-yl)-1-(1-(difluoromethyl)isoquinolin-5-yl)-5-(trifluoromethyl)-1H-pyrazole-4-carboxamide]	0.126 µM	0.047 µM	0.209 µM
Cn1ccc2ccc(NC(=O)c3cnn(-c4cccc5ncccc45)c3C(F)(F)F)cc2c1=O [Cpd 216, N-(2-methyl-1-oxo-1,2-dihydroisoquinolin-7-yl)-1-(quinolin-5-yl)-5-(trifluoromethyl)-1H-pyrazole-4-carboxamide]	0.912 µM	0.339 µM	5.37 µM
O=C(Nc1ccnc(C(F)(F)F)c1)c1cnn(-c2cccc3c(=O)[nH]ccc23)c1C(F)(F)F [Cpd 158, 1-(1-oxo-1,2-dihydroisoquinolin-5-yl)-5-(trifluoromethyl)-N-(2-(trifluoromethyl)pyridin-4-yl)-1H-pyrazole-4-carboxamide]	> 1.51 µM	0.38 µM	–
N-(3-chloro-4-(1H-1,2,3-triazol-1-yl)phenyl)-1-(isoquinolin-4-yl)-5-(trifluoromethyl)-1H-pyrazole-4-carboxamide [Cpd 18]	–	–	2.29 µM
O=C(Nc1cnc(-n2nccn2)c(Cl)c1)c1cnn(-c2cc3ncccc3cc2F)c1C(F)(F)F [Cpd 67, N-(5-Chloro-6-(2H-1,2,3-triazol-2-yl)pyridin-3-yl)-1-(6-fluoroquinolin-7-yl)-5-(trifluoromethyl)-1H-pyrazole-4-carboxamide]	–	–	2.04 µM
O=C(Nc1ccc(-n2cccn2)c(Cl)c1)c1cnn(-c2cccc3ccncc23)c1C(F)(F)F [Cpd 12, N-(3-chloro-4-(1H-pyrazol-1-yl)phenyl)-1-(isoquinolin-8-yl)-5-(trifluoromethyl)-1H-pyrazole-4-carboxamide]	–	–	4.07 µM
O=C(Nc1cnc(-n2nccn2)c(Cl)c1)c1cnn(-c2cccc3ncccc23)c1 [Cpd 60, N-(5-chloro-6-(2H-1,2,3-triazol-2-yl)pyridin-3-yl)-1-(quinolin-5-yl)-1H-pyrazole-4-carboxamide]	–	–	11.5 µM
N#Cc1ncc(NC(=O)c2cnn(-c3cccc4ccncc34)c2C(F)(F)F)cc1C(F)(F)F [Cpd 13, N-(6-cyano-5-(trifluoromethyl)pyridin-3-yl)-1-(isoquinolin-8-yl)-5-(trifluoromethyl)-1H-pyrazole-4-carboxamide]	–	–	6.03 µM
Cc1c(C(=O)Nc2cnc(-n3nccn3)c(Cl)c2)cnn1-c1ccnc2ccccc12 [Cpd 64, N-(5-chloro-6-(2H-1,2,3-triazol-2-yl)pyridin-3-yl)-5-methyl-1-(quinolin-4-yl)-1H-pyrazole-4-carboxamide]	–	–	1.15 µM
O=C(Nc1cnc(-n2nccn2)c(Cl)c1)c1cnn(-c2cncc3ccccc23)c1 [Cpd 76, N-(5-chloro-6-(2H-1,2,3-triazol-2-yl)pyridin-3-yl)-1-(isoquinolin-4-yl)-1H-pyrazole-4-carboxamide]	–	–	8.32 µM

Further lines, results first:

IC50 [1]	IC50 [2]	IC50 [3]	Compound
0.102 µM	0.085 µM	0.355 µM	CC(=O)c1cc(-n2ncc(C(=O)Nc3cnc(-n4nccn4)c(Cl)c3)c2C(F)(F)F)c2ccccc2n1 [Cpd 375, 1-(2-acetylquinolin-4-yl)-N-(5-chloro-6-(2H-1,2,3-triazol-2-yl)pyridin-3-yl)-5-(trifluoromethyl)-1H-pyrazole-4-carboxamide]
0.263 µM	0.141 µM	0.851 µM	O=C(O)c1cn(-c2ncc(NC(=O)c3cnn(-c4cccc5ncccc45)c3C(F)(F)F)cc2Cl)nn1 [Cpd 234, 1-(3-chloro-5-(1-(quinolin-5-yl)-5-(trifluoromethyl)-1H-pyrazole-4-carboxamido)pyridin-2-yl)-1H-1,2,3-triazole-4-carboxylic acid]
–	–	5.01 µM	Cc1ncn(-c2ncc(NC(=O)c3cnn(-c4cccc5ccncc45)c3C(F)(F)F)cc2Cl)n1 [Cpd 30, N-(5-chloro-6-(3-methyl-1H-1,2,4-triazol-1-yl)pyridin-3-yl)-1-(isoquinolin-8-yl)-5-(trifluoromethyl)-1H-pyrazole-4-carboxamide]
–	–	4.57 µM	Nc1nccc(-c2ccc(NC(=O)c3cnn(-c4cccc5ccncc45)c3C(F)(F)F)cc2Cl)n1 [Cpd 14, N-(4-(2-aminopyrimidin-4-yl)-3-chlorophenyl)-1-(isoquinolin-8-yl)-5-(trifluoromethyl)-1H-pyrazole]
–	–	2.69 µM	N#Cc1cc(NC(=O)c2cnn(-c3cncc4ccccc34)c2C(F)(F)F)cnc1C(=O)N1CCN(CCCCN)CC1 [Cpd 101, N-(6-(4-(4-aminobutyl)piperazine-1-carbonyl)-5-cyanopyridin-3-yl)-1-(isoquinolin-4-yl)-5-(trifluoromethyl)-1H-pyrazole-4-carboxamide]
–	–	4.17 µM	O=C(Nc1cnc(-n2cccn2)c(Cl)c1)c1cnn(-c2cccc3ccncc23)c1C(F)(F)F [Cpd 15, N-(5-chloro-6-(1H-pyrazol-1-yl)pyridin-3-yl)-1-(isoquinolin-8-yl)-5-(trifluoromethyl)-1H-pyrazole-4-carboxamide]
–	–	0.083 µM	COC(=O)c1ncc(NC(=O)c2ncc(NC(=O)c3cnn(-c4cncc5ccccc45)c3C(F)(F)F)cc2Cl)cc1Cl [Cpd 44, Methyl 3-chloro-5-(3-chloro-5-(1-(isoquinolin-4-yl)-5-(trifluoromethyl)-1H-pyrazole-4-carboxamido)picolinamido)picolinate]
–	–	8.91 µM	Cc1ncnn1-c1ccc(NC(=O)c2cnn(-c3cccc4ccncc34)c2C(F)(F)F)cc1Cl [Cpd 31, N-(3-chloro-4-(5-methyl-1H-1,2,4-triazol-1-yl)phenyl)-1-(isoquinolin-8-yl)-5-(trifluoromethyl)-1H-pyrazole-4-carboxamide]
–	–	0.724 µM	CN1CCC(Oc2ncc(NC(=O)c3cnn(-c4cncc5ccccc45)c3C(F)(F)F)cc2C#N)CC1 [Cpd 80, N-(5-cyano-6-((1-methylpiperidin-4-yl)oxy)pyridin-3-yl)-1-(isoquinolin-4-yl)-5-(trifluoromethyl)-1H-pyrazole-4-carboxamide]
–	–	0.417 µM	N#Cc1cc(NC(=O)c2cnn(-c3cncc4ccccc34)c2C(F)(F)F)ccn1 [Cpd 77, N-(2-cyanopyridin-4-yl)-1-(isoquinolin-4-yl)-5-(trifluoromethyl)-1H-pyrazole-4-carboxamide]
–	–	1.45 µM	Cc1ccc2c(-n3ncc(C(=O)Nc4cnc(-n5nccn5)c(Cl)c4)c3C(F)(F)F)cccc2n1 [Cpd 37, N-(5-Chloro-6-(2H-1,2,3-triazol-2-yl)pyridin-3-yl)-1-(2-methylquinolin-5-yl)-5-(trifluoromethyl)-1H-pyrazole-4-carboxamide]
–	–	2.46 µM	Cc1ncn(-c2ccc(NC(=O)c3cnn(-c4cccc5ccncc45)c3C(F)(F)F)cc2Cl)n1 [Cpd 29, N-(3-chloro-4-(3-methyl-1H-1,2,4-triazol-1-yl)phenyl)-1-(isoquinolin-8-yl)-5-(trifluoromethyl)-1H-pyrazole-4-carboxamide]
–	–	9.55 µM	O=C(Nc1cnc(N2CCCS2(=O)=O)c(Cl)c1)c1cnn(-c2cccc3ccncc23)c1C(F)(F)F [Cpd 20, N-(5-chloro-6-(1,1-dioxidoisothiazolidin-2-yl)pyridin-3-yl)-1-(isoquinolin-8-yl)-5-(trifluoromethyl)-1H-pyrazole-4-carboxamide]
–	–	1.58 µM	O=C(Nc1ccc(-n2nccn2)nc1)c1cnn(-c2cncc3ccccc23)c1C(F)(F)F [Cpd 71, N-(6-(2H-1,2,3-triazol-2-yl)pyridin-3-yl)-1-(isoquinolin-4-yl)-5-(trifluoromethyl)-1H-pyrazole-4-carboxamide]
